Reference: patent US10329294B2, “Pyrazolopyrimidine inhibitors of IRAK4 activity” (MERCK SHARP & DOHME CORP., priority 2015, dated 2019)
Where a name gives a salt, the structure may show the parent alone.

Each compound was assayed against IRAK4 (Homo sapiens (Human), UniProt Q9NWZ3) (assay: IRAK4 Kinase Assay). Settings: IMAP fluorescence polarization, 0.5 nM GST tagged IRAK4, 100 μM ATP, 30 minutes at 25° C.; read-out: IRAK4 IC50.
Format: biochemical
Experimental: The kinase activity of IRAK4 is determined by its ability to catalyze the phosphorylation of a fluorescent polypeptide substrate. The extent of phosphorylation is measured using the IMAP technology (Molecular Devices) where the phosphorylated fluorescent substrate binds to the large M(III)-based nanoparticles which reduces the rotational speed of the substrate and thus increases its fluorescent polarization (FP).
20 μL reaction mixture contains 10 mM TriHCl, pH 7.2, 0.5 nM GST tagged IRAK4 (SignalChem), 100 nM fluorescent peptide substrate (RP7030, Molecular Devices), 100 μM ATP, 1 mM DDT, 1 mM MgCl2, and 0.01% Tween 20. The reaction is initiated by the addition of ATP. After incubation for 30 minutes at 25° C., 60 μL of Progressive IMAP Reagent (Molecular Devices) is added to stop the reaction. Change in RP7030's FP is determined by a FP reader (Analyst HT, LJL BioSystems).

Chain of IRAK4 (Q9NWZ3 whole entry): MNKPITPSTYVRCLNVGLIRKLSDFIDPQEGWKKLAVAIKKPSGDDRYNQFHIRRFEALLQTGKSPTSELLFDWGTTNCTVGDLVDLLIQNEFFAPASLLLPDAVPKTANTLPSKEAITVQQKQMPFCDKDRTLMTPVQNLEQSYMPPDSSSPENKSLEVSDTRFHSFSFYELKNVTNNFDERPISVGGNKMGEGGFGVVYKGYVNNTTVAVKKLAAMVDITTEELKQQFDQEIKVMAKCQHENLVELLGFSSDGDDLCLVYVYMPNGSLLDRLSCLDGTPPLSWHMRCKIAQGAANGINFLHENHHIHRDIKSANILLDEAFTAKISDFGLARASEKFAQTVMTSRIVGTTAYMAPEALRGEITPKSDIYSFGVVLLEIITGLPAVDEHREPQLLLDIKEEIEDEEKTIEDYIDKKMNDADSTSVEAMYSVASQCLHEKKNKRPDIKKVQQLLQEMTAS

Structure (SMILES)	IC50 [nM]
Cn1cc(NC(=O)c2cnn3ccc(N4C5CCC4CNC5)nc23)c(C(F)(F)F)n1 [Example 226, 5-(3,8-diazabicyclo[3.2.1]oct-8-yl)-N-[1-methyl-3-(trifluoromethyl)-1H-pyrazol-4-yl]pyrazolo[1,5-a]pyrimidine-3-carboxamide trifluoroacetate]	2
O=C(Nc1ccccc1I)c1cnn2ccc(N[C@@H]3CCCC[C@@H]3O)nc12 [Example 101, 5-{[(1R,2S)-2-hydroxycyclohexyl]amino}-N-(2-iodophenyl)pyrazolo[1,5-a]pyrimidine-3-carboxamide]	7650
O=C(Nc1cscc1Br)c1cnn2ccc(N3CCCNCC3)nc12 [Example 123, N-(4-bromothiophen-3-yl)-5-(1,4-diazepan-1-yl)pyrazolo[1,5-a]pyrimidine-3-carboxamide trifluoroacetate]	389
Cn1cc(NC(=O)c2cnn3ccc(N4C[C@@H]5CN[C@@H](C5)C4)nc23)c(C(F)(F)F)n1 (single isomer, unassigned) [Example 224, 5-[(1S,5S)- or (1R,5R)-3,6-diazabicyclo[3.2.1]oct-3-yl]-N-[1-methyl-3-(trifluoromethyl)-1H-pyrazol-4-yl]pyrazolo[1,5-a]pyrimidine-3-carboxamide]	70
Cn1cc(NC(=O)c2cnn3ccc(N4CC5CNC(C5)C4)nc23)c(C(F)(F)F)n1 (centres unmarked) [Example 223, 5-(3,6-diazabicyclo[3.2.1]oct-3-yl)-N-[1-methyl-3-(trifluoromethyl)-1H-pyrazol-4-yl]pyrazolo[1,5-a]pyrimidine-3-carboxamide trifluoroacetate]	57
CC(C)(C)n1cc(NC(=O)c2cnn3ccc(N[C@@H]4CCCC[C@@H]4O)nc23)c(C(F)(F)F)n1 [Example 48, N-[1-tert-butyl-3-(trifluoromethyl)-1H-pyrazol-4-yl]-5-{[(1R,2S)-2-hydroxycyclohexyl]amino} pyrazolo[1,5-a]pyrimidine-3-carboxamide trifluoroacetate]	259
Cn1cc(NC(=O)c2cnn3ccc(N[C@H]4CNC[C@@H](F)C4)nc23)c(C(F)F)n1 [Example 258, N-[3-(difluoromethyl)-1-methyl-1H-pyrazol-4-yl]-5-{[(3R,5S)-5-fluoropiperidin-3-yl]amino}pyrazolo[1,5-a]pyrimidine-3-carboxamide hydrochloride]	0.5
O=C(Nc1ccccc1Cl)c1cnn2ccc(N3CCCNCC3)nc12 [Example 105, N-(2-chlorophenyl)-5-(1,4-diazepan-1-yl)pyrazolo[1,5-a]pyrimidine-3-carboxamide trifluoroacetate]	1270
Cn1cc(NC(=O)c2cnn3ccc(N[C@@H]4CCCC(F)[C@@H]4N)nc23)c(C(F)(F)F)n1 (single isomer, unassigned) [Example 203, 5-{[(1R,2R)- or (1S,2S)-2-amino-3-fluorocyclohexyl]amino}-N-[1-methyl-3-(trifluoromethyl)-1H-pyrazol-4-yl]pyrazolo[1,5-a]pyrimidine-3-carboxamide]	7
Cn1cc(NC(=O)c2cnn3ccc(N4C5CNCC4C5)nc23)c(C(F)(F)F)n1 [Example 214, 5-(3,6-diazabicyclo[3.1.1]hept-6-yl)-N-[1-methyl-3-(trifluoromethyl)-1H-pyrazol-4-yl]pyrazolo[1,5-a]pyrimidine-3-carboxamide]	38
Cn1cc(NC(=O)c2cnn3ccc(N[C@H]4C(O)CCC[C@H]4N)nc23)c(C(F)(F)F)n1 (single isomer, unassigned) [Example 202, 5-{[(1R,2R)- or (1S,2S)-2-amino-6-hydroxycyclohexyl]amino}-N-[1-methyl-3-(trifluoromethyl)-1H-pyrazol-4-yl]pyrazolo[1,5-a]pyrimidine-3-carboxamide]	4
O=C(Nc1cn(CC(F)F)nc1C(F)(F)F)c1cnn2ccc(N[C@@H]3CCCC[C@@H]3O)nc12 [Example 63, N-[1-(2,2-difluoroethyl)-3-(trifluoromethyl)-1H-pyrazol-4-yl]-5-{[(1R,2S)-2-hydroxycyclohexyl]amino} pyrazolo[1,5-a]pyrimidine-3-carboxamide trifluoroacetate]	38
O=C(Nc1ccccc1Br)c1cnn2ccc(N3CC4CCC3CN4)nc12 (centres unmarked) [Example 112, N-(2-bromophenyl)-5-(2,5-diazabicyclo[2.2.2]oct-2-yl)pyrazolo[1,5-a]pyrimidine-3-carboxamide trifluoroacetate]	955
N#Cc1cscc1NC(=O)c1cnn2ccc(N[C@@H]3CCCC(F)(F)[C@@H]3N)nc12 [Example 143, 5-{[(1R,2R)-2-amino-3,3-difluorocyclohexyl]amino}-N-(4-cyanothiophen-3-yl)pyrazolo[1,5-a]pyrimidine-3-carboxamide]	192
Cn1cc(NC(=O)c2cnn3ccc(NC4CCCCC4)nc23)cn1 [Example 3, 5-(cyclohexylamino)-N-(1-methyl-1H-pyrazol-4-yl)pyrazolo[1,5-a]pyrimidine-3-carboxamide trifluoroacetate]	237
Cn1cc(NC(=O)c2cnn3ccc(N[C@@H]4CNCC[C@@H]4F)nc23)c(C(F)(F)F)n1 (single isomer, unassigned) [Example 230, 5-{[(3R,4S)- or (3S,4R)-4-fluoropiperidin-3-yl]amino}-N-[1-methyl-3-(trifluoromethyl)-1H-pyrazol-4-yl]pyrazolo[1,5-a]pyrimidine-3-carboxamide]	0.5
Cn1cc(NC(=O)c2cnn3ccc(NC4CCCNCC4)nc23)c(C(F)(F)F)n1 (centres unmarked) [Example 17, 5-(azepan-4-ylamino)-N-[1-methyl-3-(trifluoromethyl)-1H-pyrazol-4-yl]pyrazolo[1,5-a]pyrimidine-3-carboxamide hydrochloride]	14

More lines, now with the values ahead:

IC50 [nM]	Structure (SMILES)
2	Cn1cc(NC(=O)c2cnn3ccc(N4CCC(F)(F)[C@@H](N)C4)nc23)c(C(F)F)n1 (single isomer, unassigned) [Example 189, 5-[(4R)- or (4S)-(3-amino-4,4-difluoropiperidin-1-yl)-N-[3-(difluoromethyl)-1-methyl-1H-pyrazol-4-yl]pyrazolo[1,5-a]pyrimidine-3-carboxamide trifluoroacetate]
2	Cn1cc(NC(=O)c2cnn3ccc(N[C@H]4CNCCC4(F)F)nc23)c(C(F)F)n1 (single isomer, unassigned) [Example 242, N-[(R or S)-3-(difluoromethyl)-1-methyl-1H-pyrazol-4-yl]-5-[(4,4-difluoropiperidin-3-yl)amino]pyrazolo[1,5-a]pyrimidine-3-carboxamide trifluoroacetate]
76	COCCc1nn(C)cc1NC(=O)c1cnn2ccc(N[C@@H]3CCCC[C@@H]3N)nc12 [Example 283, 5-{[(1R,2S)-2-aminocyclohexyl]amino}-N-[3-(2-methoxyethyl)-1-methyl-1H-pyrazol-4-yl]pyrazolo[1,5-a]pyrimidine-3-carboxamide trifluoroacetate]
480	O=C(Nc1cscc1Cl)c1cnn2ccc(N3CCCNCC3)nc12 [Example 167, N-(4-chlorothiophen-3-yl)-5-(1,4-diazepan-1-yl)pyrazolo[1,5-a]pyrimidine-3-carboxamide trifluoroacetate]
72	CN(C)[C@H]1CCCC[C@H]1Nc1ccn2ncc(C(=O)Nc3cn(C)nc3C(F)(F)F)c2n1 [Example 263, 5-(((1R,2S)-2-(Dimethylamino)cyclohexyl)amino)-N-(1-methyl-3-(trifluoromethyl)-1H-pyrazol-4-yl)pyrazolo[1,5-a]pyrimidine-3-carboxamide]
121	Cn1cc(NC(=O)c2cnn3ccc(N4CCNCC4C(F)(F)F)nc23)c(C(F)(F)F)n1 (centres unmarked) [Example 215, N-[1-methyl-3-(trifluoromethyl)-1H-pyrazol-4-yl]-5-[2-(trifluoromethyl)piperazin-1-yl]pyrazolo[1,5-a]pyrimidine-3-carboxamide trifluoroacetate]
0.9	Cn1cc(NC(=O)c2cnn3ccc(N4C[C@@H](N)C[C@H](F)C4)nc23)c(C(F)F)n1 [Example 248, 5-[(3S,5S)-3-amino-5-fluoropiperidin-1-yl]-N-[3-(difluoromethyl)-1-methyl-1H-pyrazol-4-yl]pyrazolo[1,5-a]pyrimidine-3-carboxamide trifluoroacetate]
2100	N[C@@H]1[C@H](Nc2ccn3ncc(C(=O)Nc4ccccc4C(F)F)c3n2)CCCC1(F)F [Example 132, 5-{[(1R,2R)-2-amino-3,3-difluorocyclohexyl]amino}-N-[2-(difluoromethyl)phenyl] pyrazolo[1,5-a]pyrimidine-3-carboxamide trifluoroacetate]
2	Cn1cc(NC(=O)c2cnn3ccc(N4CCC(F)(F)[C@H](N)C4)nc23)c(C(F)F)n1 (single isomer, unassigned) [Example 193, 5-[(4R)- or (4S)-(3-amino-4,4-difluoropiperidin-1-yl)-N-[3-(difluoromethyl)-1-methyl-1H-pyrazol-4-yl]pyrazolo[1,5-a]pyrimidine-3-carboxamide trifluoroacetate]
0.7	Cn1cc(NC(=O)c2cnn3ccc(N4C[C@H](N)C[C@H](F)C4)nc23)c(C(F)F)n1 [Example 251, 5-[(3R,5S)-3-amino-5-fluoropiperidin-1-yl]-N-[3-(difluoromethyl)-1-methyl-1H-pyrazol-4-yl]pyrazolo[1,5-a]pyrimidine-3-carboxamide trifluoroacetate]
1	N[C@H]1CCCC[C@H]1Nc1ccn2ncc(C(=O)Nc3cscc3Cl)c2n1 [Example 168, 5-{[(1R,2S)-2-aminocyclohexyl]amino}-N-(4-chlorothiophen-3-yl)pyrazolo[1,5-a]pyrimidine-3-carboxamide trifluoroacetate]

Same assay, conditions: IRAK4 IC50 (nM), IMAP fluorescence polarization, 0.5 nM GST tagged IRAK4, 100 μM ATP, 30 minutes at 25° C.

Structure (SMILES)	IC50 [nM]
Cn1cc(NC(=O)c2cnn3ccc(N[C@@H]4CCCC(O)[C@@H]4N)nc23)c(C(F)(F)F)n1 (single isomer, unassigned) [Example 201, 5-{[(1R,2R)- or (1S,2S)-2-amino-3-hydroxycyclohexyl]amino}-N-[1-methyl-3-(trifluoromethyl)-1H-pyrazol-4-yl]pyrazolo[1,5-a]pyrimidine-3-carboxamide]	4
